Read-outs that look alike come from different tables or passages of the source.
Legend:
Mycobacterium 607 [1] = conditions: cup test; standard value; cited from earlier work
Mycobacterium 607 [2] = assay: cup test, antimicrobial activity to Mycobacterium 607; format: cell-based
From the text: The endpoint of the hydrolysis reaction can be determined by a reaction in antimicrobial activity of the bleomycin substrate as measured by conventional cup tests using Mycobacterium 607, or by a change in the Rf value during thin layer chromatography.

HeLa (S3 bb cell line) = conditions: third day
From the text: wherein the inhibitory effect = [formula] Co: relative number of cell on the first day t3 : relative number of cell on the third day after the addition of a bleomycin (3 mcg/ml in final)
C3 : relative number of cell in negative control on the third day

solubility in solvents = format: physicochemical
ICR-JCL male mice = conditions: 10 mice, 10 mg./kg. i.v., 10 days
From the text: The mice were bred for 5 weeks after the final administration and were then dissected. The right and left lungs were observed by microscopic examination.

Compound	antimicrobial activity to Mycobacterium 607 (Mycobacterium 607 [2]) [μ/mg]	Inhibitory effect (HeLa (S3 bb cell line); 1.5 mcg/ml.)	Inhibitory effect (HeLa (S3 bb cell line); 3 mcg/ml.)	Inhibitory effect (cell culture of Yoshida; 0.625 mcg/ml)	Inhibitory effect (cell culture of Yoshida; 1.25 mcg/ml)	Inhibitory effect (cell culture of Yoshida; 2.5 mcg/ml)	Inhibitory effect (cell culture of Yoshida; 5 mcg/ml)	further results
Cc1c(N)nc([C@H](CC(N)=O)NC[C@H](N)C(N)=O)nc1C(=O)N[C@H](C(=O)N[C@H](C)[C@@H](O)[C@H](C)C(=O)N[C@H](C(=O)NCCc1nc(-c2nc(C(=O)NCCC[S+](C)C)cs2)cs1)[C@@H](C)O)[C@@H](O[C@@H]1O[C@@H](CO)[C@@H](O)[C@H](O)[C@@H]1O[C@H]1O[C@H](CO)[C@@H](O)[C@H](OC(N)=O)[C@@H]1O)c1c[nH]cn1.[Br-] [bleomycin A2, 3-dimethylsulfopropylamino-bleomycin]								antimicrobial activity, standard (Mycobacterium 607 [1]): 1000 μ/mg
benzylamino-bleomycin	3250	38	73	11.1	28.2	55.4	83.5	Inhibitory effect (HeLa (S3 bb cell line); 6 mcg/ml.): 92
Cc1c(N)nc(C(CC(N)=O)NCC(N)C(N)=O)nc1C(=O)NC(C(=O)NC(C)C(O)C(C)C(=O)NC(C(=O)NCCc1nc(-c2nc(C(=O)O)cs2)cs1)C(C)O)C(OC1OC(CO)C(O)C(O)C1OC1OC(CO)C(O)C(OC(N)=O)C1O)c1cnc[nH]1 (centres unmarked) [bleomycinic acid]	159							
hydrochloride of bleomycinic acid								solubility in ethanol, ethyl acetate, acetone and ether (solubility in solvents; ethanol, ethyl acetate, acetone, ether): insoluble; solubility in methanol, acetic acid, dimethylsulfoxide (solubility in solvents; methanol, acetic acid, dimethylsulfoxide): sparingly soluble; solubility in water (solubility in solvents; water): soluble
Cc1c(N)nc([C@H](CC(N)=O)NC[C@H](N)C(N)=O)nc1C(=O)N[C@H](C(=O)N[C@H](C)[C@@H](O)[C@H](C)C(=O)N[C@H](C(=O)NCCc1nc(-c2nc(C(=O)NCCCCN=C(N)N)cs2)cs1)[C@@H](C)O)[C@@H](O[C@@H]1O[C@@H](CO)[C@@H](O)[C@H](O)[C@@H]1O[C@H]1O[C@H](CO)[C@@H](O)[C@H](OC(N)=O)[C@@H]1O)c1cnc[nH]1 [bleomycin B2, 4-guanidinobutylamino-bleomycin]	3094	33	64	8.6	34.0	56.0	74.9	antimicrobial activity to Mycobacterium 607 (Mycobacterium 607 [2]; listed as bleomycin): 3015 μ/mg; Total, mice with degree of fibrosis ++ (ICR-JCL male mice; Lung L): 1; Total, mice with degree of fibrosis - (ICR-JCL male mice; Lung L): 5; Total, mice with degree of fibrosis ± (ICR-JCL male mice; Lung L): 1; Total, mice with degree of fibrosis ± (third Total column) (ICR-JCL male mice; Lung L): 3; Total, mice with degree of fibrosis ++ (ICR-JCL male mice; Lung R): 0; Total, mice with degree of fibrosis - (ICR-JCL male mice; Lung R): 4; Total, mice with degree of fibrosis ± (ICR-JCL male mice; Lung R): 3; Total, mice with degree of fibrosis ± (third Total column) (ICR-JCL male mice; Lung R): 3
